Source: article PMC11912122, “Gut in Tube—Continuous Measurement of Metabolic Crosstalk between Cell Populations in Heterogeneous Samples by NMR Imaging” (Analytical Chemistry, 2025)
Square brackets hold non-standard residues; d marks the D form. Peptide text beside a SMILES is read from it. Phe(4-F) = N[C@@H](Cc1ccc(F)cc1)C(=O)O

Test system: Cocultures of colonocytes (Caco-2, HT29, T84, SW620)
Assay: Cell viability assay (MTT)
Format: cell-based, human
Conditions: peptide 1.6 mg/mL, 37 °C, 3 h, OD590, % viability vs control, n=3
Procedure: Individual cell lines (Caco-2, HT29, T84, and SW620) were grown from frozen stocks, prepared at ca. 1 million/mL. Cells were seeded in a T-75 tissue culture flask, passaged once, and matured to ca. 10 million/mL in a T-175 flask in complete media. Cells were rinsed twice with Ca^2+/Mg^2+-free PBS (25 mL, CAS D8537), trypsinized, the trypsin deactivated with P/S-free complete media, all four lineages mixed in a 1:1:1:1 ratio, pelleted (300 rcf, 5 min), and resuspended in alginate (sodium alginate, CAS 9005–38–3, 1% w/v in P/S-free complete media). The cell suspension was extruded through a 200 μL pipet tip dropwise into cold CaCl2 (0.3 M in phosphate-buffered saline, PBS, CAS D8662, 15 °C) under stirring (100 r.p.m.). The cell spheres (Figures S1 and S2, Supporting Information (SI)) were removed from the CaCl2 solution, washed, and stored in P/S-free complete media before further use.
The effect of the peptide on cell viability was measured using a cell proliferation kit (CAS 11465007001). 3-[4,5-Dimethylthiazole-2-yl]-2,5-diphenyltetrazolium bromide (MTT) was solubilized in PBS (5 mg/mL) and filter-sterilized (0.22-μm). Cocultures of colonocytes were grown in phenol red-free complete media in 24-well plates to ca. 50% confluency. […] The absorbance (OD590) in each well was read, and % viability was calculated against the control (Figure S6, SI).

## C[C@H](NC(=O)[C@@H](N)Cc1ccc(F)cc1)C(=O)N[C@@H](Cc1c[nH]cn1)C(=O)N[C@@H](Cc1c[nH]c2ccccc12)C(N)=O [p-F-Phe-Ala-His-Trp] (H-[Phe(4-F)]AHW-NH2)
  effect on colonocyte viability: no significant (p > 0.05) effect and ns
